Test results: patent publication US20230029496A1, “AMINO ACID ALTERNATIVE CURING SYSTEM” (THE TEXAS A&M UNIVERSITY SYSTEM, priority 2019, published 2023)
Where “and” joins values, the source holds several entries; their conditions need not be identical. Equal entries are not always repeated. Entries after “also recorded” stand apart in the source; their conditions may differ. Marks after values point to notes of the source that are not given here.

How the values were obtained:
[1] = tested on: Nitric Oxide Synthase (NOS) system; experiment: Cure efficiency (NO-heme, total heme, nitrosylation) of cooked pre-rigor pork semimembranosus muscle (first study); format: biochemical; conditions: for NO-Heme / Total Heme: ppm acid hematin
Description: Cooked meat samples were subjected to analysis to determine the degree of nitrosylation of residual nitrite, the procedure set forth by Pearson and Tauber (Pearson and Tauber, 1984) from Hornsey's procedure for analyzing small samples was used to analyze sample supernatant and pellet. 2 mL or 2 g of the samples were treated with acetone to measure NO-heme concentration and separately 2 mL or 2 g of the samples were treated with acetone and hydrochloric acid to measure total heme concentration in a 1 cm quartz cuvette. NO-heme concentration (ppm acid hematin) was determined using a spectrophotometer (2100 Series Spectrophotometer, Unico, Dayton, N.J.) by reading samples at 540 nm. Total heme concentration (ppm acid hematin) was determined at 640 nm determined nitrosylation, which indicated how well varying concentrations of L-arginine affected the NOS system's ability to cure, known as cure efficiency. This procedure measured how much myoglobin was converted to nitroso-hemochromagen, the cured meat color, and the level of conversion compared to all pigmentation within the sample.
Curing efficiency or nitrosylation is calculated as the percentage conversion of NO-heme to total heme. Cure efficiency is the percentage of total pigment converted to nitroso pigment and indicated the degree of cured color fading. Cured meat pigment is extracted in a solution of 80% acetone and 20% water that extracts cured pigment heme. Total heme pigments are extracted using an acidified acetone solution that extracts heme from all heme proteins as first used by Hornsey. NO-heme concentration (as ppm acid hematin)=sample A540×290 determines the specific cure color pink from the rest of the heme pigmentation of the sample. Total heme concentration (ppm acid hematin)=sample A640×680 determines the total heme pigmentation of the sample. Cure efficiency (%)=(ppm of nitrosoheme […]ppm of total pigment)×100 and indicates how much of the product is cured and holds the cured pink stability once cooked.
Procedures • 1. Do all procedures in subdued light to reduce fading of pigment. • 2. Weigh out 2.0 g minced lean meat sample in a 50-mL polypropylene centrifuge tube. • 3. Pipette 9.0 mL acetone-a into 50-mL tube, to obtain acetone concentration of 80%. • 4. Mix thoroughly with a probe-type homogenizer or a glass rod. • 5. Cap the tube to minimize evaporation of acetone, and mix by gentle swirling. • 6. Let stand 10 minutes in the dark, then filter through medium-fast filter paper into a glass test tube. • 7. Transfer filtrate into a 1-cm quartz cuvette and read absorbance at 540 nm. (Avoid use of disposable plastic cuvettes. They become opaque upon exposure to acetone). Calculate nitroso pigment concentration as previously described. • 8. Prepare another 2.0-g sample, using acetone-b. • 9. Macerate and hold 1 hour in the dark before filtering. • 10. Filter the extract as before, and read absorbance at 640 nm. Calculate total pigment and cure efficiency as previously described.

NOS system [2] = experiment: NO-heme, total heme, nitrosylation and cured color in test tube pork loin sausages (Example 11)
Source text: Pork loins from a local meat distributor were procured on Mar. 18, 2019 and tested four weeks later on Apr. 18, 2019. A total of nine pounds of pork loins were split into thirds and ground through kidney, ½″, and ¼″ plates to make a restructured ham sausages formulated (Table 14) to contain either 1000 or 5000 ppm L-arginine which were stuffed in 2″ plastic casings and thermally processed. Three pounds of each grind size (9 pound batch) were mixed with high (5000 ppm), low (1000 ppm), or control (0 ppm) concentrations of brine at 25% addition using a Kitchen aid mixer. It was decided to lower the concentration of the L-arginine from 1500 ppm (Test 3) to 1000 ppm (Test 4) to verify that this concentration can generate acceptable levels of NO to develop cured color and residual nitrite for antioxidant and antimicrobial properties. Control and treatment met batches were stuffed in plastic casings in triplicate for each high, low, and control concentrations in one pound portions. […] The samples were tested for residual nitrite and nitroso-hemochromagen pigment (Table 14) one day after thermal processing cooking (April 19th to April 20th), then eight days after thermal processing on April 26th to determine any cure color fading and residual nitrite.

[3] = pH after immersion, pre- and post-rigor pork semimembranosus muscle (Example 13); format: physicochemical
NOS system [4] = experiment: NO-heme, total heme, nitrosylation and cured color in test tube pork loin sausages (Example 11); remark: listed apart in the source
[5] = tested on: nitric oxide synthase system; experiment: Residual nitrite equivalency scale, key findings across all species (Example 26)
[6] = 2 mM L-arginine, cooked supernatant
[7] = 4 mM L-arginine, cooked supernatant
[8] = 8 mM L-arginine, cooked supernatant
[9] = 16 mM L-arginine, cooked pellet
[10] = 16 mM L-arginine, cooked supernatant
[11] = 32 mM L-arginine, cooked pellet
[12] = 32 mM L-arginine, cooked supernatant
[13] = High (5000 ppm) L-arginine, one day after thermal processing
[14] = Low (1000 ppm) L-arginine, 8 days post thermal processing
[15] = Low (1000 ppm) L-arginine, one day after thermal processing
[16] = High (5000 ppm) L-arginine, 8 days post thermal processing

N=C(N)NCCC[C@H](N)C(=O)O [L-arginine]
Nitrosylation (Cure Efficiency) ([1]; 2 mM L-arginine, cooked pellet): 46.51% and 46.51^ab % | NO-Heme ([1]; 2 mM L-arginine, cooked pellet): 8.70^a ppm | Total Heme ([1]; 2 mM L-arginine, cooked pellet): 64.77 ppm and 64.77^a ppm | Nitrosylation (Cure Efficiency) [1, 6]: 125.52^a % | NO-Heme [1, 6]: 43.94^a ppm | Total Heme [1, 6]: 24.22 ppm and 24.22^ab ppm | Nitrosylation (Cure Efficiency) ([1]; 4 mM L-arginine, cooked pellet): 74.27% and 74.27^ab % | NO-Heme ([1]; 4 mM L-arginine, cooked pellet): 7.77^a ppm | Total Heme ([1]; 4 mM L-arginine, cooked pellet): 35.87^ab ppm | Nitrosylation (Cure Efficiency) [1, 7]: 155.68^a % | NO-Heme [1, 7]: 21.09^a ppm | Total Heme [1, 7]: 34.17 ppm and 34.17^ab ppm | Nitrosylation (Cure Efficiency) ([1]; 8 mM L-arginine, cooked pellet): 70.13% and 70.13^ab % | NO-Heme ([1]; 8 mM L-arginine, cooked pellet): 9.33^a ppm | Total Heme ([1]; 8 mM L-arginine, cooked pellet): 33.44^ab ppm | Nitrosylation (Cure Efficiency) [1, 8]: 108.99^a % | NO-Heme [1, 8]: 16.44^a ppm | Total Heme [1, 8]: 70.38 ppm and 70.38^a ppm | Nitrosylation (Cure Efficiency) [1, 9]: 97.82% and 97.82^ab % | NO-Heme [1, 9]: 11.69^a ppm | Total Heme [1, 9]: 36.04^ab ppm | Nitrosylation (Cure Efficiency) [1, 10]: 110.11^a % | NO-Heme [1, 10]: 16.73^a ppm | Total Heme [1, 10]: 20.14 ppm and 20.14^ab ppm | Nitrosylation (Cure Efficiency) [1, 11]: 156.72% and 156.72^a % | NO-Heme [1, 11]: 13.05^a ppm | Total Heme [1, 11]: 54.40^ab ppm | Nitrosylation (Cure Efficiency) [1, 12]: 50.48^a % | NO-Heme [1, 12]: 16.86^a ppm | Total Heme [1, 12]: 31.67 ppm and 31.67^ab ppm | cure efficiency ([1]; cooked supernatant, at all L-arginine concentrations): over 100% | Total Heme (NOS system [2]; [13]): 22.21^a ppm | NO-Heme (NOS system [2]; [14]): 12.95^a ppm | Nitrosylation (NOS system [2]; [14]): 45.28^a % | NO-Heme (NOS system [2]; [15]): 8.21^a ppm | Total Heme (NOS system [2]; [15]): 22.21^a ppm | nitrosylation percentage (NOS system [2]; from the low to high concentrations, one day after thermal processing): 37 to 60% | cured color (FIG. 8) (NOS system [2]; high concentration (5000 ppm) L-arginine): pink cured color formation | cured color (FIG. 8) (NOS system [2]; low concentration (1000 ppm) L-arginine): slight cured color | pH after 2 hours of sample immersion ([3]; 2 mM L-arginine, post rigor cooked): 5.77^a | pH after 2 hours of sample immersion ([3]; 2 mM L-arginine, post rigor raw): 5.52^a | pH after 2 hours of sample immersion ([3]; 2 mM L-arginine, pre-rigor cooked): 6.03^a | pH after 2 hours of sample immersion ([3]; 2 mM L-arginine, pre-rigor raw): 5.94^a | pH after 2 hours of sample immersion ([3]; 4 mM L-arginine, post rigor cooked): 5.75^a | pH after 2 hours of sample immersion ([3]; 4 mM L-arginine, post rigor raw): 5.52^a | pH after 2 hours of sample immersion ([3]; 4 mM L-arginine, pre-rigor cooked): 6.01^a | pH after 2 hours of sample immersion ([3]; 4 mM L-arginine, pre-rigor raw): 6.04^a | pH after 2 hours of sample immersion ([3]; 8 mM L-arginine, post rigor cooked): 5.66^a | pH after 2 hours of sample immersion ([3]; 8 mM L-arginine, post rigor raw): 5.53^a | pH after 2 hours of sample immersion ([3]; 8 mM L-arginine, pre-rigor cooked): 5.99^a | pH after 2 hours of sample immersion ([3]; 8 mM L-arginine, pre-rigor raw): 5.93^a | pH after 2 hours of sample immersion ([3]; 16 mM L-arginine, post rigor cooked): 5.75^a | pH after 2 hours of sample immersion ([3]; 16 mM L-arginine, post rigor raw): 5.53^a | pH after 2 hours of sample immersion ([3]; 16 mM L-arginine, pre-rigor cooked): 6.00^a | pH after 2 hours of sample immersion ([3]; 16 mM L-arginine, pre-rigor raw): 5.91^a | pH after 2 hours of sample immersion ([3]; 32 mM L-arginine, post rigor cooked): 5.76^a | pH after 2 hours of sample immersion ([3]; 32 mM L-arginine, post rigor raw): 5.56^a | pH after 2 hours of sample immersion ([3]; 32 mM L-arginine, pre-rigor cooked): 5.97^a | pH after 2 hours of sample immersion ([3]; 32 mM L-arginine, pre-rigor raw): 5.93^a | sample pH after the immersion phase ([3]; range over pre- and post-rigor, raw and cooked, 0-32 mM): 5.51-6.04 | NO-Heme (NOS system [4]; [16]): 14.59^a ppm | Nitrosylation (NOS system [4]; [16]): 38.65^a % | Total Heme (NOS system [4]; [16]): 37.4^a ppm | NO-Heme (NOS system [4]; [13]): 13.43^b ppm | Nitrosylation (NOS system [4]; [13]): 60.58^b % | Total Heme (NOS system [4]; [14]): 28.56^b ppm | Nitrosylation (NOS system [4]; [15]): 37.05^a % | decrease in nitrosylation (NOS system [4]; during 8 days of refrigerated vacuum packaged storage): 38-45% | residual nitrite values compared to sodium nitrite concentrations of 120, 156 and 200 ppm ([5]; L-arginine 1000, 2000 and 3000 ppm, with sodium erythorbate, except poultry at 200 ppm sodium nitrite): comparable | residual nitrite values compared to lower L-arginine concentrations ([5]; L-arginine 4000 and 5000 ppm, with sodium erythorbate): lower residual nitrite values | residual nitrite values compared to sodium nitrite treated samples ([5]; no cure accelerator (sodium erythorbate) included): consistently lower; also recorded: lower residual nitrite values
